# What was measured:
# [1] = biological target: T1, urease (U7752, Sigma-Aldrich) (Canavalia ensiformis, UniProt P07374); test: Inhibition of the activity of the urease in phosphate buffer solution (Berthelot, absorbance 625 nm); assay type: biochemical
# T1 construct: purchased Sigma-Aldrich U7752
# Method: 1. Experiment of the Inhibition of the Activity of the Urease (in Phosphate Buffer Solution, pH 5.0)
# 1.1 Control group: 20 μL of the buffer solution and 25 μL of 50 ppm urease (U7752, Sigma-Aldrich) were added and mixed in wells of a 96-well plate. After the mixture reacted at 37° C. for 5 minutes, 40 μL of 20 mM urea solution was added into the mixture. After the mixture reacted at 37° C. for 10 minutes, 55 μL of Berthelot reagent A (prepared by mixing 5 g of phenol and 25 mg of sodium nitroprusside and diluting the mixture to 500 mL with purified water) and 60 μL of Berthelot reagent B (prepared by mixing 2.5 g of sodium hydroxide and 4.2 mL of sodium hypochlorite and diluting the mixture to 500 mL with purified water) were added into each well. The mixture was held in the dark at 37° C. for 30 minutes, and the absorbance was measured at 625 nm wavelength by an enzyme-linked immuno-sorbent assay (ELISA) reader. Each sample was measured at least in triplicate.
# (§1) 1.2 Ascorbic acid groups: 10 μL of the buffer solution, 10 μL of ascorbic acid solution and 25 μL of 50 ppm urease were added and mixed in wells of a 96-well plate. After the mixture reacted at 37° C. for 5 minutes, 40 μL of 20 mM urea solution was added into the mixture to make the final concentrations of the ascorbic acid as 120 ppm, 240 ppm and 480 ppm, respectively. After the mixture reacted at 37° C. for 10 minutes, 55 μL of Berthelot reagent A and 60 μL of Berthelot reagent B were added into each well. The mixture was held in the dark at 37° C. for 30 minutes, and the absorbance was measured at 625 nm wavelength by the ELISA reader. Each sample was measured at least in triplicate. The inhibition % of the activity of the urease=100−((the absorbance of the sample/the absorbance of the control group)×100).
# 2. Experiment of the Inhibition of the Activity of the Urease (in Phosphate Buffer Solution, pH 6.0)
# 2.1 Control group: 20 μL of the buffer solution and 25 μL of 50 ppm urease were added and mixed in wells of a 96-well plate. After the mixture reacted at 37° C. for 5 minutes, 40 μL of 20 mM urea solution was added into the mixture. After the mixture reacted at 37° C. for 10 minutes, 55 μL of Berthelot reagent A and 60 μL of Berthelot reagent B were added into each well. The mixture was held in the dark at 37° C. for 30 minutes, and the absorbance was measured at 625 nm wavelength by the ELISA reader. Each sample was measured at least in triplicate.
# as §1, with “2.2” for “1.2”
# 3. Experiment of the Inhibition of the Activity of the Urease (in Phosphate Buffer Solution, pH 6.8)
# 3.1 Control group: 20 μL of the buffer solution and 25 μL of 50 ppm urease were added and mixed in wells of a 96-well plate. After the mixture reacted at 37° C. for 5 minutes, 40 μL of 20 mM urea solution was added into the mixture. After the mixture reacted at 37° C. for 10 minutes, 55 μL of Berthelot reagent A and 60 μL of Berthelot reagent B were added into each well. The mixture was held in the dark at 37° C. for 30 minutes, and the absorbance was measured at 625 nm wavelength by the ELISA reader. Each sample was measured at least in triplicate. […]
# [2] = biological target: T1, urease (U7752, Sigma-Aldrich); test: Inhibition of the activity of the urease in citric acid salt buffer solution (Berthelot, absorbance 625 nm); assay type: biochemical
# Method: 7.1 Control group: Control group: 20 μL of the buffer solution and 25 μL of 50 ppm urease were added and mixed in wells of a 96-well plate. After the mixture reacted at 37° C. for 5 minutes, 40 μL of 20 mM urea solution was added into the mixture. After the mixture reacted at 37° C. for 10 minutes, 55 μL of Berthelot reagent A and 60 μL of Berthelot reagent B were added into each well. The mixture was held in the dark at 37° C. for 30 minutes, and the absorbance was measured at 625 nm wavelength by the ELISA reader. Each sample was measured at least in triplicate.
# as §1, with “7.2” for “1.2”
# 8.1 Control group: Control group: 20 μL of the buffer solution and 25 μL of 50 ppm urease were added and mixed in wells of a 96-well plate. After the mixture reacted at 37° C. for 5 minutes, 40 μL of 20 mM urea solution was added into the mixture. After the mixture reacted at 37° C. for 10 minutes, 55 μL of Berthelot reagent A and 60 μL of Berthelot reagent B were added into each well. The mixture was held in the dark at 37° C. for 30 minutes, and the absorbance was measured at 625 nm wavelength by the ELISA reader. Each sample was measured at least in triplicate.
# as §1, with “8.2” for “1.2”
# 9.1 Control group: Control group: 20 μL of the buffer solution and 25 μL of 50 ppm urease were added and mixed in wells of a 96-well plate. After the mixture reacted at 37° C. for 5 minutes, 40 μL of 20 mM urea solution was added into the mixture. After the mixture reacted at 37° C. for 10 minutes, 55 μL of Berthelot reagent A and 60 μL of Berthelot reagent B were added into each well. The mixture was held in the dark at 37° C. for 30 minutes, and the absorbance was measured at 625 nm wavelength by the ELISA reader. Each sample was measured at least in triplicate.
# as §1, with “9.2” for “1.2”, “Each sample was measured at least in triplicate. The inhibition % of the activity of the urease=100−((the absorbance of the sample/the absorbance of the control group)×100).” left out
# [3] = pH 5, read-out: inhibition % of the activity of the urease
# [4] = pH 6, read-out: inhibition % of the activity of the urease
# [5] = pH 6.8, read-out: inhibition % of the activity of the urease
# [6] = pH 7, read-out: inhibition % of the activity of the urease
# [7] = pH 7.3, read-out: inhibition % of the activity of the urease
# [8] = pH 8, read-out: inhibition % of the activity of the urease
# T1 sequence (P07374 whole entry, looked up): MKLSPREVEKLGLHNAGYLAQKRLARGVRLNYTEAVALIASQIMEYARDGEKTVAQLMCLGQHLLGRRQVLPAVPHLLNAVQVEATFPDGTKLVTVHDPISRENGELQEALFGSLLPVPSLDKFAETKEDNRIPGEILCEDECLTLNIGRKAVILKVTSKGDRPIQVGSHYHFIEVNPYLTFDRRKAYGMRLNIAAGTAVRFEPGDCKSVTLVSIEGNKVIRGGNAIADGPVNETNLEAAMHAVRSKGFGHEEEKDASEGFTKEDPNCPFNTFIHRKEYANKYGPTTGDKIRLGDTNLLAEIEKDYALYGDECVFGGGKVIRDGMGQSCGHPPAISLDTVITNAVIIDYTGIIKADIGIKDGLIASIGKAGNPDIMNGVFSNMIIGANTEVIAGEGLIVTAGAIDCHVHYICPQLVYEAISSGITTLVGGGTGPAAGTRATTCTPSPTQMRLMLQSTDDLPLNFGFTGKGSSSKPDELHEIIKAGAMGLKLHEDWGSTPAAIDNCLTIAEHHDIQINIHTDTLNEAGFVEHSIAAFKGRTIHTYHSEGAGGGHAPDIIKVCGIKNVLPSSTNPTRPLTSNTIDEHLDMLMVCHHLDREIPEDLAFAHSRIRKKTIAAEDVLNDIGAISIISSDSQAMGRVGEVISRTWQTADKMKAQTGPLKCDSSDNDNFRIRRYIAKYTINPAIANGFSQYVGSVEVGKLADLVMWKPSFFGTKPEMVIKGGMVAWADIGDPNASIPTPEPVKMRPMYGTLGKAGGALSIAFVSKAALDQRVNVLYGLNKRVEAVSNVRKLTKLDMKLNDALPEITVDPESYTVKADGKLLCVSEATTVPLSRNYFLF
smiles,measurement,setting,value
O=C1O[C@H]([C@@H](O)CO)C(O)=C1O [ascorbic acid],inhibitory effect on the urease hydrolysis (in words),"[1]; environment with pH 5-8, optical density versus control group",has the inhibitory effect on the urease hydrolysis
same,inhibitory effect on the urease hydrolysis,"[1]; environment with pH 6.8-7.3, summary statement, buffer and concentration not stated",over 90%
same,inhibition at 120 ppm,[1]; [3],25.7%
same,inhibition at 240 ppm,[1]; [3],33.1%
same,inhibition at 480 ppm,[1]; [3],40.5%
same,inhibition at 120 ppm,[1]; [4],26.7%
same,inhibition at 240 ppm,[1]; [4],49%
same,inhibition at 480 ppm,[1]; [4],52.9%
same,inhibition at 480 ppm,"[1]; pH 6, read-out: inhibition of the urea hydrolysis",> 50%
same,inhibition at 120 ppm,[1]; [5],2%
same,inhibition at 240 ppm,[1]; [5],37.3%
same,inhibition at 480 ppm,[1]; [5],96.5%
same,inhibition at 480 ppm,"[1]; pH 6.8, read-out: inhibition of the urea hydrolysis",> 93%
same,inhibition at 120 ppm,[1]; [6],16.1%
same,inhibition at 240 ppm,[1]; [6],59.4%
same,inhibition at 480 ppm,[1]; [6],97.2%
same,inhibition at 120 ppm,[1]; [7],11.3%
same,inhibition at 240 ppm,[1]; [7],34.6%
same,inhibition at 480 ppm,[1]; [7],93.6%
same,inhibition at 120 ppm,[1]; [8],8.1%
same,inhibition at 240 ppm,[1]; [8],33.3%
same,inhibition at 480 ppm,[1]; [8],77.7%
same,inhibition at 120 ppm,"[2]; pH 6.8, read-out: inhibition % of the activity of the urease, 120 ppm ascorbic acid, citrate buffer solution, pH 6.8",-6.8%
same,inhibition at 240 ppm,"[2]; pH 6.8, read-out: inhibition % of the activity of the urease, 240 ppm ascorbic acid, citrate buffer solution, pH 6.8",66%
same,inhibition at 480 ppm,"[2]; pH 6.8, read-out: inhibition % of the activity of the urease, 480 ppm ascorbic acid, citrate buffer solution, pH 6.8",93.5%
same,inhibition at 480 ppm,"[2]; pH 6.8, read-out: inhibition of the urea hydrolysis, 480 ppm ascorbic acid, citrate buffer solution, pH 6.8-7.0",> 90%
same,inhibition at 480 ppm,"[2]; pH 6.8, read-out: inhibition of the urea hydrolysis, 480 ppm ascorbic acid, citrate buffer solution, pH 6.8-7.3",> 50%
same,inhibition at 120 ppm,"[2]; pH 7, read-out: inhibition % of the activity of the urease, 120 ppm ascorbic acid, citrate buffer solution, pH 7.0",-25.2%
same,inhibition at 240 ppm,"[2]; pH 7, read-out: inhibition % of the activity of the urease, 240 ppm ascorbic acid, citrate buffer solution, pH 7.0",32.6%
same,inhibition at 480 ppm,"[2]; pH 7, read-out: inhibition % of the activity of the urease, 480 ppm ascorbic acid, citrate buffer solution, pH 7.0",93.6%
same,inhibition at 120 ppm,"[2]; pH 7.3, read-out: inhibition % of the activity of the urease, 120 ppm ascorbic acid, citrate buffer solution, pH 7.3",-19.7%
same,inhibition at 240 ppm,"[2]; pH 7.3, read-out: inhibition % of the activity of the urease, 240 ppm ascorbic acid, citrate buffer solution, pH 7.3",27.1%
same,inhibition at 480 ppm,"[2]; pH 7.3, read-out: inhibition % of the activity of the urease, 480 ppm ascorbic acid, citrate buffer solution, pH 7.3",75.3%

# — patent US20190330529A1, “USE AND COMPOSITION OF BUFFER FORMULATION WITH MULTIPLE PH VALUES AND UREASE ACTIVITY INHIBITOR” (ECO-GEO BIO-TECHNOLOGY COMPANY LIMITED, priority 2018, published 2019)
